tested on: HIV mutant strain 2 (E92Q/E138T/G140S/Q148H); experiment: Test Example 2: resistance evaluation test (HeLa-CD4 reporter), mutant strain 2; assay type: cell-based; settings: FC=EC50 of mutant strain/EC50 of wild strain; HeLa-CD4 cells
Method: (§1) A serial dilution series of test samples in 96-well microplates was prepared (50 […]).
(§2) 2.5×10^4/mL of HeLa-CD4 cell suspension was dispensed into each of the microplates containing test sample, in the amount of 100 μL/well, and HIV virus liquid (wild strain and mutant strain) was then dispensed in an amount of 50 μL/well. Mixing was performed using a plate mixer and culturing was performed for three days in a CO2 incubator. After removing the cultured supernatant of each well by suction, 100 μL of the cell solution buffer in the reporter measurement kit was dispensed thereto, and freezing was conducted in a refrigerator (−80° C.). The plates frozen in the refrigerator were defrosted at room temperature, then mixed using a plate mixer and centrifuged for 5 min at 1,200 rpm. The supernatant of each well was divided to 96-well microplates (BLACK) in the amount of 20 μL in each case. The chemiluminescence reagent in the reporter assay kit was dispensed in the amount of 100 μL in each case, and, after reacting for about 1 h at room temperature, the amount of luminescence was measured using a MicroBeta TRILUX.
(§3) The degree of resistance (fold change (FC)) of each mutant strain was also calculated using the following formula. FC=EC50 of mutant strain/EC50 of wild strain (Results)
(§4) The results of the example compounds relating to formula (I) of (A) are shown below. The […] in respect of mutant strain 1 (E138K/G140S/Q148H/N155H) and the FC in respect of mutant strain 2 (E92Q/E138T/G140S/Q148H) are shown in the Table.

SMILES	FC in respect of mutant strain 2 (E92Q/E138T/G140S/Q148H)
C[C@H]1CC[C@H]2N(C)C(=O)c3c(O)c(=O)c(C(=O)NCc4cccc(Cl)c4F)cn3N2C1 [II-019]	7
CCN1C(=O)c2c(O)c(=O)c(C(=O)NCc3ccc(F)cc3F)cn2N2[C@H](COC)CC[C@@H]12 [II-084]	38
CCN1C(=O)c2c(O)c(=O)c(C(=O)NCc3ccc(F)cc3F)cn2N2CCCC[C@@]12C [Compound I-024]	16
CCN1C(=O)c2c(O)c(=O)c(C(=O)NCc3c(F)cc(F)cc3F)cn2N2C[C@@H]3CC[C@@H](C3)[C@@H]12 [II-014]	7.3
CCN1C(=O)c2c(O)c(=O)c(C(=O)NCc3ccc(F)cc3)cn2N2CCCC[C@@H]12 [II-070]	36
CN1C(=O)c2c(O)c(=O)c(C(=O)NCc3cccc(Cl)c3F)cn2N2[C@H]3COC[C@H]3C[C@@H]12 [II-132]	17
COC[C@@H]1CC[C@H]2N(C(C)C)C(=O)c3c(O)c(=O)c(C(=O)NCc4ccccc4F)cn3N12 [II-005]	7.7
CCN1C(=O)c2c(O)c(=O)c(C(=O)NCc3ccc(F)cc3F)cn2N2C[C@H](COC)C[C@@H]12 [II-039]	62
C[C@H]1CC[C@H]2N(C)C(=O)c3c(O)c(=O)c(C(=O)NCc4ccc(Cl)cc4F)cn3N2C1 [II-063]	25
CCN1C(=O)c2c(O)c(=O)c(C(=O)NCc3ccc(F)cc3F)cn2N2[C@H]3COC[C@H]3C[C@@H]12 [II-038]	110
CC(C)N1C(=O)c2c(O)c(=O)c(C(=O)NCc3c(F)cc(F)cc3F)cn2N2C[C@@H]3CC[C@@H](O3)[C@@H]12 [II-002]	7.4
CN1C(=O)c2c(O)c(=O)c(C(=O)NCc3cccc(Cl)c3F)cn2N2C[C@@H]3CC[C@@H](O3)[C@@H]12 [II-058]	15
CCN1C(=O)c2c(O)c(=O)c(C(=O)NCc3c(F)cc(F)cc3F)cn2N2C[C@@H]3CC[C@@H](O3)[C@@H]12 [II-041]	28
CC(C)N1C(=O)c2c(O)c(=O)c(C(=O)NCc3c(F)cc(F)cc3F)cn2N2[C@H]3COC[C@H]3C[C@@H]12 [II-133]	34
CN1C(=O)c2c(O)c(=O)c(C(=O)NCc3cccc(Cl)c3F)cn2N2C[C@@H]3CCC[C@@H](C3)[C@@H]12 [II-139]	10
CCN1C(=O)c2c(O)c(=O)c(C(=O)NCc3ccc(F)cc3F)cn2N2C[C@@H]3CCC[C@@H](O3)[C@@H]12 [II-150]	16

tested on: not listed separately; experiment: Test Example 8: metabolic stability test; assay type: in vitro ADME, human; settings: human, microsomes, 0.5 h, 0.5 μmol/L, pH 7.4
Method: The extent of metabolization of the compound according to the present invention in the liver was evaluated by reacting commercially available pooled human liver microsomes with the compound according to the present invention for a fixed time and calculating the remaining percentage by comparing the reaction sample with an unreacted sample.
The reaction (oxidative reaction) was conducted for 0 min or 30 min at 37° C. in the presence of 1 mmol/L of NADPH, in a 0.2 mL buffer solution containing 0.5 mg of human liver microsome protein/mL (50 mmol/L Tris-HCl pH 7.4, 150 mmol/L potassium chloride, 10 mmol/L magnesium chloride). After the reaction, 50 μL of reaction liquid were added to 100 μL of methanol/acetonitrile=1/1 (v/v) solution, mixed, and centrifuged for 15 minutes at 3000 rpm. The compound according to the present invention in the centrifuged supernatant was quantified using LC/MS/MS or solid phase extraction (SPE)/MS; the residual amount of the compound according to the present invention after the reaction was calculated, taking the amount of the compound at the 0 min reaction point as 100%.

SMILES	Remaining percentage [%]
CN1C(=O)c2c(O)c(=O)c(C(=O)NCc3cccc(Cl)c3F)cn2N2[C@H]3COC[C@H]3C[C@@H]12 [II-132]	101
CCN1C(=O)c2c(O)c(=O)c(C(=O)NCc3ccc(F)cc3F)cn2N2[C@H]3COC[C@H]3C[C@@H]12 [II-038]	77.2
CC(C)N1C(=O)c2c(O)c(=O)c(C(=O)NCc3c(F)cc(F)cc3F)cn2N2[C@H]3COC[C@H]3C[C@@H]12 [II-133]	73.3

same assay, conditions: pooled human liver microsomes, 30 min at 37° C., NADPH, compound concentration 0.5 μmol/L

SMILES	Remaining percentage [%]
C[C@H]1CC[C@H]2N(C)C(=O)c3c(O)c(=O)c(C(=O)NCc4cccc(Cl)c4F)cn3N2C1 [II-019]	84.1
CCN1C(=O)c2c(O)c(=O)c(C(=O)NCc3ccc(F)cc3F)cn2N2[C@H](COC)CC[C@@H]12 [II-084]	97.5
CCN1C(=O)c2c(O)c(=O)c(C(=O)NCc3ccc(F)cc3F)cn2N2CCCC[C@@]12C [Compound I-024]	92.5
CCN1C(=O)c2c(O)c(=O)c(C(=O)NCc3c(F)cc(F)cc3F)cn2N2C[C@@H]3CC[C@@H](C3)[C@@H]12 [II-014]	74.3
CCN1C(=O)c2c(O)c(=O)c(C(=O)NCc3ccc(F)cc3)cn2N2CCCC[C@@H]12 [II-070]	100
COC[C@@H]1CC[C@H]2N(C(C)C)C(=O)c3c(O)c(=O)c(C(=O)NCc4ccccc4F)cn3N12 [II-005]	80.8
CCN1C(=O)c2c(O)c(=O)c(C(=O)NCc3ccc(F)cc3F)cn2N2C[C@H](COC)C[C@@H]12 [II-039]	84.3
C[C@H]1CC[C@H]2N(C)C(=O)c3c(O)c(=O)c(C(=O)NCc4ccc(Cl)cc4F)cn3N2C1 [II-063]	95.7
CC(C)N1C(=O)c2c(O)c(=O)c(C(=O)NCc3c(F)cc(F)cc3F)cn2N2C[C@@H]3CC[C@@H](O3)[C@@H]12 [II-002]	80.2
CN1C(=O)c2c(O)c(=O)c(C(=O)NCc3cccc(Cl)c3F)cn2N2C[C@@H]3CC[C@@H](O3)[C@@H]12 [II-058]	97.7
CCN1C(=O)c2c(O)c(=O)c(C(=O)NCc3c(F)cc(F)cc3F)cn2N2C[C@@H]3CC[C@@H](O3)[C@@H]12 [II-041]	88.4
CN1C(=O)c2c(O)c(=O)c(C(=O)NCc3cccc(Cl)c3F)cn2N2C[C@@H]3CCC[C@@H](C3)[C@@H]12 [II-139]	75.4
CCN1C(=O)c2c(O)c(=O)c(C(=O)NCc3ccc(F)cc3F)cn2N2C[C@@H]3CCC[C@@H](O3)[C@@H]12 [II-150]	98.6

tested on: HIV mutant strain 1 (E138K/G140S/Q148H/N155H); experiment: Test Example 2: resistance evaluation test (HeLa-CD4 reporter), mutant strain 1; assay type: cell-based; settings: FC=EC50 of mutant strain/EC50 of wild strain; HeLa-CD4 cells
Method: as §1, §2, §3, §4

SMILES	FC in respect of mutant strain 1 (E138K/G140S/Q148H/N155H)
C[C@H]1CC[C@H]2N(C)C(=O)c3c(O)c(=O)c(C(=O)NCc4cccc(Cl)c4F)cn3N2C1 [II-019]	7.3
CCN1C(=O)c2c(O)c(=O)c(C(=O)NCc3ccc(F)cc3F)cn2N2[C@H](COC)CC[C@@H]12 [II-084]	39
CCN1C(=O)c2c(O)c(=O)c(C(=O)NCc3ccc(F)cc3F)cn2N2CCCC[C@@]12C [Compound I-024]	24
CCN1C(=O)c2c(O)c(=O)c(C(=O)NCc3c(F)cc(F)cc3F)cn2N2C[C@@H]3CC[C@@H](C3)[C@@H]12 [II-014]	5.7
CCN1C(=O)c2c(O)c(=O)c(C(=O)NCc3ccc(F)cc3)cn2N2CCCC[C@@H]12 [II-070]	32
CN1C(=O)c2c(O)c(=O)c(C(=O)NCc3cccc(Cl)c3F)cn2N2[C@H]3COC[C@H]3C[C@@H]12 [II-132]	76
COC[C@@H]1CC[C@H]2N(C(C)C)C(=O)c3c(O)c(=O)c(C(=O)NCc4ccccc4F)cn3N12 [II-005]	4.6
CCN1C(=O)c2c(O)c(=O)c(C(=O)NCc3ccc(F)cc3F)cn2N2C[C@H](COC)C[C@@H]12 [II-039]	48
C[C@H]1CC[C@H]2N(C)C(=O)c3c(O)c(=O)c(C(=O)NCc4ccc(Cl)cc4F)cn3N2C1 [II-063]	38
CCN1C(=O)c2c(O)c(=O)c(C(=O)NCc3ccc(F)cc3F)cn2N2[C@H]3COC[C@H]3C[C@@H]12 [II-038]	78
CC(C)N1C(=O)c2c(O)c(=O)c(C(=O)NCc3c(F)cc(F)cc3F)cn2N2C[C@@H]3CC[C@@H](O3)[C@@H]12 [II-002]	3.1
CN1C(=O)c2c(O)c(=O)c(C(=O)NCc3cccc(Cl)c3F)cn2N2C[C@@H]3CC[C@@H](O3)[C@@H]12 [II-058]	25
CCN1C(=O)c2c(O)c(=O)c(C(=O)NCc3c(F)cc(F)cc3F)cn2N2C[C@@H]3CC[C@@H](O3)[C@@H]12 [II-041]	17
CC(C)N1C(=O)c2c(O)c(=O)c(C(=O)NCc3c(F)cc(F)cc3F)cn2N2[C@H]3COC[C@H]3C[C@@H]12 [II-133]	17
CN1C(=O)c2c(O)c(=O)c(C(=O)NCc3cccc(Cl)c3F)cn2N2C[C@@H]3CCC[C@@H](C3)[C@@H]12 [II-139]	18
CCN1C(=O)c2c(O)c(=O)c(C(=O)NCc3ccc(F)cc3F)cn2N2C[C@@H]3CCC[C@@H](O3)[C@@H]12 [II-150]	26

Reference: patent publication US12564595B2, “Prophylactic and therapeutic pharmaceutical agent for HIV infectious diseases characterized by comprising combination of integrase inhibitor and anti-HIV agent” (Shionogi & Co., Ltd., priority 2019, dated 2026)
